Values of other authors, collected in PMC2912446 (ACS chemical biology, 2010).

Test system: GPR30
Settings: read-out: GPR30 binding affinity; parent small molecules

IC50 [nM]	Compound
~11	CC(=O)c1ccc2c(c1)[C@@H]1C=CC[C@@H]1[C@H](c1cc3c(cc1Br)OCO3)N2 [G-1]
